Assay results reported in patent publication US11007214B2, “Compositions and methods for treating eye diseases” (CLOUDBREAK THERAPEUTICS LLC, priority 2019, dated 2021).
Where two headings read alike, the source gives them in different places.

Legend:
[1] = Screening of CDs and CD derivatives for ability to dissolve cholesterol in water (HPLC); type: physicochemical; details: for Concentrations of Cholesterol in CDs Solution: 5 days at ambient, ND = not detectable
Experimental: Purpose: To determine the level of cholesterol that can be dissolved in water when 10 different CDs and their derivatives were added at three concentrations.
All CD solutions were prepared with starting 20% (w/v) solutions by accurately adding about 800 mg CDs in 4 milliliter water, 1% and 10% were diluted from this 20% solution to 2 mL for each sample preparation experiment.
Cholesterol was added accurately to all CD water solutions at about 40 mg/mL or about 80 mg per 2 mL. This amount of cholesterol was enough to fully saturate the CD solutions with white settlements or floating or both. All samples were conditioned at ambient by shaking using a rotator for 5 days.
After the equilibration with shaking for 5 days at ambient, the clear or semi-clear portion was filtered with 0.2 μm filter. 50 μL of the filtered solution was diluted with 450 μL methanol (10×) for HPLC analysis. NOVAPAK phenyl column (7.6 cm by 3.9 mm I.D.) was used with a mobile phase of acetonitrile: water (70:30) at a flow rate of 0.5 ml/min and detection at UV at 210 nm.

[2] = tested on: pterygium patients with dry eye or with no dry eye; test: PSLQ ocular symptom score, further analysis by dry eye condition; type: in vivo, human; details: any timepoint
Description: These ocular symptoms are often observed in MGD patients. Scores of these symptoms were graded by patients as part of PSLQ questionnaires. (1) Dry eye patients vs. Non-dry eye patients (based upon patients' medical history) with the combined nintedanib-treated and vehicle-treated groups. […] The pterygium patients with dry eye condition was compared with pterygium patients with no dry eye condition. In this comparison, all pterygium patients with dry eye condition in the drug and vehicle treated group was combined and the same was done for pterygium patients with no dry eye condition. Number of data points for each group were N=17 for dry eye and N=18 for no dry eye. […] Pterygium patients with dry eye condition had higher baseline score and had bigger reduction from baseline of ocular symptom score during treatment period when compared to pterygium patients with no dry eye condition. (2) Nintedanib vs. Vehicle for dry eye patients (based upon patients' medical history).

[3] = cited from earlier work; for Ability to form soluble complex with cholesterol in aqueous solution (in words): 37° C., CDs 1.0 × 10^−2 M; for Absorbance (600 nm), increase due to cholesterol dissolved by CDs: aqueous solution at 37° C., concentration of CDs 1.0 × 10^−2 M
[4] = tested on: Patients with Primary or Recurrent Pterygium
Experimental: A Phase 2a Multicenter, Randomized, Vehicle-Controlled, Dose Escalating Study was carried out to evaluate the Safety, Efficacy and Pharmacokinetics of Nintedanib Ophthalmic Solution in Patients with Primary or Recurrent Pterygium. The multicenter, randomized, double-masked, vehicle-controlled, parallel study was conducted with 28 days three times a day (TID) repeat ocular dosing of vehicle and 0.2% nintedanib, followed by 5-month post-dosing observation.
Pterygium patients often have meibomian gland atrophy and clinical signs and symptoms of MGD, including ocular pain, itchy, foreign body sensation, redness, sensitivity to light and […]. In the Phase II clinical trial, pterygia patients were asked 15 questions on ocular symptom, vision-related functioning and quality of life via Pterygium Symptom and Life Quality (PSLQ) questionnaires.
PSLQ analyses were performed for 4 average category scores; Overall, Ocular Symptoms, Vision-Related Functioning, and Quality of Life Impact.

Row | Compound | Ability to dissolve cholesterol in water (in words) [1] | Concentrations of Cholesterol in CDs Solution ([1]; CD 1% (w/v) in water) | Ability to form soluble complex with cholesterol in aqueous solution (in words) [3] | Absorbance (600 nm), increase due to cholesterol dissolved by CDs [3] | also measured
1 | 2-hydroxypropyl-gamma-cyclodextrin [HP-GCD, reference compound] | extremely low levels |  |  |  | Concentrations of Cholesterol in CDs Solution ([1]; CD 10% (w/v) in water): 3000 ng/mL; Concentrations of Cholesterol in CDs Solution ([1]; CD 20% (w/v) in water): 11000 ng/mL
2 | COC(=O)c1ccc2c(c1)NC(=O)/C2=C(\Nc1ccc(N(C)C(=O)CN2CCN(C)CC2)cc1)c1ccccc1 [Nintedanib 0.2%, nintedanib] |  |  |  |  | PSLQ ocular symptom score, Nintedanib 0.2% vs Vehicle (in words) [2]: no statistically significant differences
3 | 2-hydroxypropyl-alpha-cyclodextrin [HP-ACD, reference compound] | no detectable cholesterol dissolving activity |  |  |  | 
4 | 2-Hydroxypropyl-beta-cyclodextrin [2-HP-β-CD] | substantial ability to dissolve cholesterol | 10000 ng/mL | weak ability | 0.01 | Concentrations of Cholesterol in CDs Solution ([1]; CD 10% (w/v) in water): 820000 ng/mL; PSLQ scores compared to the baseline (in words) ([4]; 2-HP-β-CD-treated group): significant improvements; PSLQ Average Vision-Related Functioning Score, Mean ([4]; Baseline, N = 23, SD 0.80, Modified Intent-to-Treat Population): 0.57; PSLQ Average Vision-Related Functioning Score, Change from Baseline, Mean ([4]; Week 2, N = 23, SD 0.65, p-value 0.067 (one sample t-test)): −0.27; PSLQ Average Vision-Related Functioning Score, Change from Baseline, Mean ([4]; Week 4, N = 23, SD 0.65, p-value 0.003): −0.48; PSLQ Average Vision-Related Functioning Score, Change from Baseline, Mean ([4]; Week 8, N = 23, SD 0.62, p-value 0.004): −0.43; PSLQ Average Vision-Related Functioning Score, Change from Baseline, Mean ([4]; Week 16, N = 23, SD 0.56, p-value 0.08): −0.23; PSLQ Average Vision-Related Functioning Score, Change from Baseline, Mean ([4]; Week 24, N = 23, SD 1.1, p-value 0.617): −0.11
5 | OC[C@H]1O[C@@H]2O[C@H]3[C@H](O)[C@@H](O)[C@@H](O[C@H]4[C@H](O)[C@@H](O)[C@@H](O[C@H]5[C@H](O)[C@@H](O)[C@@H](O[C@H]6[C@H](O)[C@@H](O)[C@@H](O[C@H]7[C@H](O)[C@@H](O)[C@@H](O[C@H]8[C@H](O)[C@@H](O)[C@@H](O[C@H]1[C@H](O)[C@H]2O)O[C@@H]8CO)O[C@@H]7CO)O[C@@H]6CO)O[C@@H]5CO)O[C@@H]4CO)O[C@@H]3CO [BCD, beta-cyclodextrin] |  |  | do not form soluble complexes with cholesterol |  | 
6 | random methyl-beta-cyclodextrin [M-BCD] | the best | 150000 ng/mL |  |  | 
7 | OC[C@H]1O[C@H](O[C@H]2[C@H](O)[C@@H](O)[C@@H](OC[C@H]3O[C@@H]4O[C@H]5[C@H](O)[C@@H](O)[C@@H](O[C@H]6[C@H](O)[C@@H](O)[C@@H](O[C@H]7[C@H](O)[C@@H](O)[C@@H](O[C@H]8[C@H](O)[C@@H](O)[C@@H](O[C@H]9[C@H](O)[C@@H](O)[C@@H](O[C@H]%10[C@H](O)[C@@H](O)[C@@H](O[C@H]3[C@H](O)[C@H]4O)O[C@@H]%10CO)O[C@@H]9CO)O[C@@H]8CO)O[C@@H]7CO)O[C@@H]6CO)O[C@@H]5CO)O[C@@H]2CO)[C@H](O)[C@@H](O)[C@@H]1O [6-AM-BCD, 6-O-alpha-maltosyl-beta-cyclodextrin] | about half lower | 30000 ng/mL |  |  | 
8 | COC[C@H]1O[C@@H]2O[C@H]3[C@H](O)[C@@H](OC)[C@@H](O[C@H]4[C@H](O)[C@@H](OC)[C@@H](O[C@H]5[C@H](O)[C@@H](OC)[C@@H](O[C@H]6[C@H](O)[C@@H](OC)[C@@H](O[C@H]7[C@H](O)[C@@H](OC)[C@@H](O[C@H]8[C@H](O)[C@@H](OC)[C@@H](O[C@H]1[C@H](O)[C@H]2OC)O[C@@H]8COC)O[C@@H]7COC)O[C@@H]6COC)O[C@@H]5COC)O[C@@H]4COC)O[C@@H]3COC [DM-BCD, heptakis (2,6-di-O-methyl)-beta-cyclodextrin] | the best |  |  | 0.336 | 
9 | OC[C@H]1O[C@@H]2O[C@H]3[C@H](O)[C@@H](O)[C@@H](O[C@H]4[C@H](O)[C@@H](O)[C@@H](O[C@H]5[C@H](O)[C@@H](O)[C@@H](O[C@H]6[C@H](O)[C@@H](O)[C@@H](O[C@H]7[C@H](O)[C@@H](O)[C@@H](O[C@H]1[C@H](O)[C@H]2O)O[C@@H]7CO)O[C@@H]6CO)O[C@@H]5CO)O[C@@H]4CO)O[C@@H]3CO [ACD, alpha-cyclodextrin] |  |  | do not form soluble complexes with cholesterol | 0 | 
10 | OC[C@H]1O[C@@H]2O[C@H]3[C@H](O)[C@@H](O)[C@@H](O[C@H]4[C@H](O)[C@@H](O)[C@@H](O[C@H]5[C@H](O)[C@@H](O)[C@@H](O[C@H]6[C@H](O)[C@@H](O)[C@@H](O[C@H]7[C@H](O)[C@@H](O)[C@@H](O[C@H]8[C@H](O)[C@@H](O)[C@@H](O[C@H]9[C@H](O)[C@@H](O)[C@@H](O[C@H]1[C@H](O)[C@H]2O)O[C@@H]9CO)O[C@@H]8CO)O[C@@H]7CO)O[C@@H]6CO)O[C@@H]5CO)O[C@@H]4CO)O[C@@H]3CO [GCD, gamma-cyclodextrin] |  |  | do not form soluble complexes with cholesterol | 0 | 
11 | sulfobutylated beta-cyclodextrin [SBE-BCD] |  | 2000 ng/mL |  |  | Concentrations of Cholesterol in CDs Solution ([1]; CD 10% (w/v) in water): 30000 ng/mL; Concentrations of Cholesterol in CDs Solution ([1]; CD 20% (w/v) in water): 150000 ng/mL
